Results taken from the NIST ThermoML archive (doi:10.1016/j.tca.2005.11.024).

Tests used:
[1] = molar heat capacity at constant pressure; conditions: 101.33 kPa, Small sample (50 mg) DSC
[2] = Molar enthalpy of transition or fusion; conditions: DSC
[3] = DTA

O=C(O)c1ccc(C(=O)O)s1 [2,5-thiophenedicarboxylic acid]
[1], Crystal
Conditions	molar heat capacity at constant pressure [J/K/mol]
277.15 K	161.4
280.15 K	162.7
285.15 K	163.7
290.15 K	164.7
295.15 K	166.4
298.15 K	167.1
300.15 K	167.7
305.15 K	169.5
310.15 K	171
315.15 K	173.1
320.15 K	175.1
325.15 K	177
330.15 K	178.1
335.15 K	179.7
340.15 K	180.8
345.15 K	182.3
350.15 K	184
355.15 K	186.1
360.15 K	186.4
365.15 K	190.1
370.15 K	192.4
375.15 K	194.2
380.15 K	196.7
385.15 K	198.7
390.15 K	200.9
395.15 K	203.3
400.15 K	206.1
405.15 K	209.6
410.15 K	210.9
415.15 K	213.7
420.15 K	216.3
425.15 K	219.4
430.15 K	223.1
435.15 K	225.5
440.15 K	228.1
445.15 K	229.8

c1cscn1 [1,3-thiazole]
Conditions	molar heat capacity at constant pressure [J/K/mol]
[1], 298.15 K, Liquid	122.1

CC(=O)c1cccs1 [2-acetylthiophene]
Conditions	molar heat capacity at constant pressure [J/K/mol]
[1], 298.15 K, Liquid	205.7

COC(=O)Cc1ccsc1 [methyl 3-thiopheneacetate]
Conditions	molar heat capacity at constant pressure [J/K/mol]
[1], 298.15 K, Liquid	250.6

O=S1(=O)CCCOC1 [1,3-oxathiane-3,3-dioxide]
[1], Crystal
Conditions	molar heat capacity at constant pressure [J/K/mol]
268.15 K	133.2
270.15 K	134.5
275.15 K	136.5
280.15 K	138.6
285.15 K	140.6
290.15 K	143.3
295.15 K	146.3
298.15 K	148.1
300.15 K	149.6
305.15 K	153.8
310.15 K	158.6
315.15 K	161.5
320.15 K	164.8
325.15 K	168.3
330.15 K	171.7
335.15 K	176.3

Crystal
Conditions	Molar enthalpy of transition or fusion [kcal/mol]	Normal melting temperature [°C]
[2]	3.63	–
[3]	–	79.8

O=C(O)Cc1cccs1 [2-thiopheneacetic acid]
[1], Crystal
Conditions	molar heat capacity at constant pressure [J/K/mol]
268.15 K	146.3
270.15 K	147.2
275.15 K	149.6
280.15 K	150.9
285.15 K	153.4
290.15 K	155.2
295.15 K	157.6
298.15 K	159.2
300.15 K	160.3
305.15 K	163.9
310.15 K	166.1
315.15 K	168.5
320.15 K	170.5
325.15 K	173.6

Crystal
Conditions	Molar enthalpy of transition or fusion [kcal/mol]	Normal melting temperature [°C]
[2]	3.35	–
[3]	–	64.2

CC(=O)c1ccsc1 [3-acetylthiophene]
[1], Crystal
Conditions	molar heat capacity at constant pressure [J/K/mol]
268.15 K	134
270.15 K	134.9
275.15 K	136.7
280.15 K	138.7
285.15 K	140.3
290.15 K	142.4
295.15 K	145
298.15 K	146.1
300.15 K	147.5

Crystal
Conditions	Molar enthalpy of transition or fusion [kcal/mol]	Normal melting temperature [°C]
[2]	4.52	–
[3]	–	60.5

c1csc(-c2cccs2)c1 [2,2'-bithienyl]
[1], Crystal
Conditions	molar heat capacity at constant pressure [J/K/mol]
263.15 K	175.4
265.15 K	176.2
270.15 K	178.3
275.15 K	182.4
280.15 K	185.6
285.15 K	189.3
290.15 K	192.9
291.15 K	193.6
295.15 K	198.5
298.15 K	205.5
300.15 K	218.1

Crystal
Conditions	Molar enthalpy of transition or fusion [kcal/mol]	Normal melting temperature [°C]
[2]	3.94	–
[3]	–	31.1

O=C(O)Cc1ccsc1 [3-thiopheneacetic acid]
[1], Crystal
Conditions	molar heat capacity at constant pressure [J/K/mol]
268.15 K	151.1
270.15 K	152.6
275.15 K	155.6
280.15 K	158.5
285.15 K	160.8
290.15 K	163.6
295.15 K	166.6
298.15 K	168.4
300.15 K	169.8
305.15 K	172.7
310.15 K	175.3
315.15 K	178.8
320.15 K	182.7
325.15 K	186.8
330.15 K	190.6
335.15 K	193.9
340.15 K	198.7

Crystal
Conditions	Molar enthalpy of transition or fusion [kcal/mol]	Normal melting temperature [°C]
[2]	4.49	–
[3]	–	80.2

O=S1(=O)CCSCC1 [1,4-dithiane sulfone]
[1], Crystal
Conditions	molar heat capacity at constant pressure [J/K/mol]
268.15 K	141
270.15 K	141.7
275.15 K	143.8
280.15 K	145.9
285.15 K	148.1
290.15 K	149.8
295.15 K	151.8
298.15 K	152.7
300.15 K	153.5
305.15 K	155.6
310.15 K	158.1
315.15 K	160.5
320.15 K	163
325.15 K	165.5
330.15 K	167.5
335.15 K	168.9
340.15 K	171
345.15 K	173
350.15 K	175.1
355.15 K	177.4
360.15 K	179.5
365.15 K	181.6
370.15 K	184.4
375.15 K	186.2
380.15 K	189.1
385.15 K	191.2
390.15 K	195.1
395.15 K	199.6
400.15 K	203.3
405.15 K	205.7
410.15 K	209.1
415.15 K	212.2
420.15 K	215.5
425.15 K	218.8
430.15 K	222.8
435.15 K	226.2
440.15 K	230.2
445.15 K	234.7
450.15 K	239.4
454.15 K	243.2

Crystal
Conditions	Molar enthalpy of transition or fusion [kcal/mol]	Normal melting temperature [°C]
[2]	6.21	–
[3]	–	201.1

O=S1(=O)CCOCC1 [1,4-oxathiane 4,4-dioxide]
[1], Crystal 2
Conditions	molar heat capacity at constant pressure [J/K/mol]
268.15 K	134.2
270.15 K	135.4
275.15 K	137.3
280.15 K	139.3
285.15 K	141.7
290.15 K	144.2
295.15 K	146.6
298.15 K	147.9
300.15 K	148.9
305.15 K	151.2
310.15 K	153.1
315.15 K	155.3
320.15 K	157.6
325.15 K	159.9
330.15 K	162
335.15 K	164.1
340.15 K	166.9
345.15 K	170.3
350.15 K	172.8
355.15 K	175.5
360.15 K	177.7
365.15 K	180.1
370.15 K	182.5
375.15 K	185.6
380.15 K	188.6
385.15 K	191.5
390.15 K	194.7

Conditions	Molar enthalpy of transition or fusion [kcal/mol]	Normal melting temperature [°C]
[2], Crystal 2	4.83	–
[3], Crystal 1	–	130.2

COC(=O)Cc1cccs1 [methyl 2-thiopheneacetate]
Conditions	molar heat capacity at constant pressure [J/K/mol]
[1], 298.15 K, Liquid	249.8
